The AC50 is the concentration at which the activity in the assay is half-maximal. In general, EC50 refers to the concentration that produces a half-maximal response. For orientation: CC50 means the concentration at which the toxic effect on the cells reaches its halfway point.

This note sets out measurements from ChEMBL document CHEMBL1201862, “PubChem BioAssay data set” (2004).

Calls of active or inactive are those of the source.

Experiment [1] is described as follows: bead-based luminescence quenchers, dual-tagged ARNT – biochemical, AlphaScreen, cherry-pick, artefact control for ARNT-TACC3 interaction inhibitor project, dose response (AID 651705).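 Also: AlphaScreen bead proximity signal that flags compounds interfering with the detection technology; potency reflects signal decrease which marks the compound as an assay artifact.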 Format: functional. Background: In Alpha technology, singlet oxygen from a donor bead excites a nearby acceptor bead.
Experiment [2] has as its target Peroxisome proliferator-activated receptor gamma/Nuclear receptor coactivator 1 (Homo sapiens, UniProt P37231). Format: functional.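 Also: agonist potency as compounds enhance coactivator SRC-1 recruitment to PPARgamma.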
Experiment [3] addresses T1, Orexin/Hypocretin receptor type 1 (Homo sapiens, UniProt O43613).
T1 sequence (O43613 whole entry): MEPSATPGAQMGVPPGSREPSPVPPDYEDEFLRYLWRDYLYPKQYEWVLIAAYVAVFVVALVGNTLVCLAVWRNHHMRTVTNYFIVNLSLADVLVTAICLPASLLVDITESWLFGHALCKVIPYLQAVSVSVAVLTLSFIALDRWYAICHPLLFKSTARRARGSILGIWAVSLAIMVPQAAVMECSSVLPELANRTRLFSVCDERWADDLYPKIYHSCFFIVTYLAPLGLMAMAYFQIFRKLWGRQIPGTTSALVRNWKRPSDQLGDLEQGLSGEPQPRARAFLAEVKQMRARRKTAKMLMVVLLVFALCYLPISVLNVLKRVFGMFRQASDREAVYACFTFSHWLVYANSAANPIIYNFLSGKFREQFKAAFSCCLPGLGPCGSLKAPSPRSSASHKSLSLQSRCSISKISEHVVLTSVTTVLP
Kind of experiment: Homogeneous Time Resolved Fluorescence (HTRF)-based cell-based high throughput dose response assay for antagonists of the orexin 1 receptor (OX1R; HCRTR1). [Related pubchem assays (depositor defined):AID434989, AID435008, AID463079, AID485270, AID492963, AID492964, AID492965, AID493232, AID504717, AID504718]. It counts as functional. (In general: Time-resolved FRET reads energy transfer from a long-lived donor to a nearby acceptor.)

In experiment [4] the target is Peroxisome proliferator-activated receptor gamma/Nuclear receptor coactivator 2 (Homo sapiens, UniProt P37231). Format: functional.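 Also: agonist potency for raising coactivator recruitment to the receptor.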
The target of experiment [5] is T2, Orexin receptor type 2 (Homo sapiens, UniProt O43614).
T2 sequence (O43614 whole entry): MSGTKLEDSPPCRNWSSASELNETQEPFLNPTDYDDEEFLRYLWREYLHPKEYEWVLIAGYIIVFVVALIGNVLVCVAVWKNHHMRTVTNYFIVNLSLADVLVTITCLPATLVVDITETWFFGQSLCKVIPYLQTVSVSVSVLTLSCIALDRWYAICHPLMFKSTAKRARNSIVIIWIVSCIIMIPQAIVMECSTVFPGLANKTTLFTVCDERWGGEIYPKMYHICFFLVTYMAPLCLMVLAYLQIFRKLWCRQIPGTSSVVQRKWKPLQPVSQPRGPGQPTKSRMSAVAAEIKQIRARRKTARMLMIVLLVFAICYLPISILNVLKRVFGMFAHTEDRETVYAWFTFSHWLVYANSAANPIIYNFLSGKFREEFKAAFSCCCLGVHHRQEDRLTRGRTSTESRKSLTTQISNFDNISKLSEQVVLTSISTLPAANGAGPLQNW
Kind of experiment: Counterscreen assay for antagonists of the orexin 1 receptor (OX1R; HCRTR1): Fluorescence-based cell-based dose response assay for antagonists of the orexin 2 receptor (OX2R; HCRTR2), run by assay provider. Format: functional. Background: Counterscreens check selectivity or assay interference.

The nature of experiment [6]: potency of ADAM10 substrate cleavage blockers – biochemical, QFRET, dose response (AID 743254).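 Also: ADAM10 enzyme with the DM2 quenched FRET peptide as substrate; EDANS fluorescence gain as the protease cuts the substrate; inhibitor potency against ADAM10 proteolytic activity.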
Experiment [7] has as its target T2, Orexin receptor type 2. The experiment in a line: Counterscreen assay for antagonists of the orexin 1 receptor (OX1R; HCRTR1): Homogeneous Time Resolved Fluorescence (HTRF)-based cell-based dose response assay for antagonists of the orexin 2 receptor (OX2R; HCRTR2), run by assay provider. It counts as functional.
The target in experiment [8] is Disintegrin and metalloproteinase domain-containing protein 17 (Homo sapiens, UniProt P78536). Kind of experiment: inhibition of ADAM17 substrate cleavage – biochemical, quenched FRET substrate, counter-screen for ADAM10 exosite inhibitor project, dose response (AID 743253).
Disintegrin and metalloproteinase domain-containing protein 17, sequence (P78536 whole entry, the tested form may be a part): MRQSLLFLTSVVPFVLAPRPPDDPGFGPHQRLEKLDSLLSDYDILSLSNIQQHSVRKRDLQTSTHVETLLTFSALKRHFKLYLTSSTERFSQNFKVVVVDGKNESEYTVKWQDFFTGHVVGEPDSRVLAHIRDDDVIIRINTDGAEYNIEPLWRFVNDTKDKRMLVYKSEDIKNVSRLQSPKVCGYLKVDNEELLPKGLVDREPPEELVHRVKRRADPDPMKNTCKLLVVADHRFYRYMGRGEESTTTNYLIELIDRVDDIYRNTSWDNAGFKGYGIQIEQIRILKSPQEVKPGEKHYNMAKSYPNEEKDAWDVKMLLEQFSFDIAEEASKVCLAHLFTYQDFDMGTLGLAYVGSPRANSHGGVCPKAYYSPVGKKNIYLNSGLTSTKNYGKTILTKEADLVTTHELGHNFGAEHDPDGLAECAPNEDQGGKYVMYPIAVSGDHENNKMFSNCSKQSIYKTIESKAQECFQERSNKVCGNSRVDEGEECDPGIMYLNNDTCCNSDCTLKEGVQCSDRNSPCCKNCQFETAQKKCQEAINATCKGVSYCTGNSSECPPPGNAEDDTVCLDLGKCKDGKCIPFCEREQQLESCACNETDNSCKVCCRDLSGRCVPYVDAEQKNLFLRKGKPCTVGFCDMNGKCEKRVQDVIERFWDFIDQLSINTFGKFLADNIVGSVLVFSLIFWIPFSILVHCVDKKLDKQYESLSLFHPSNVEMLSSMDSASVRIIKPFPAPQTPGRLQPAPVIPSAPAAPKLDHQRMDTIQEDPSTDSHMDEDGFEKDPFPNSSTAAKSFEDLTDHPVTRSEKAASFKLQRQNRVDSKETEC
The target of experiment [9] is T3, Probable nicotinate-nucleotide adenylyltransferase (Staphylococcus aureus (strain N315), UniProt P65502). It counts as functional, Staphylococcus aureus subsp. aureus N315.
T3 sequence (P65502 whole entry): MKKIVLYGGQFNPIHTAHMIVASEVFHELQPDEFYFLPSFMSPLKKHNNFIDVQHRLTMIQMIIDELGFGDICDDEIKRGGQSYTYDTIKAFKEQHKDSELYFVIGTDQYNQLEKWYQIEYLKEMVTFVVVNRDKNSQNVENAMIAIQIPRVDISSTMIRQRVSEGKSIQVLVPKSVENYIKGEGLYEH
Experiment [10] deals with T1, Orexin/Hypocretin receptor type 1. The experiment in a line: Fluorescence-based cell-based high throughput dose response assay for antagonists of the orexin 1 receptor (OX1R; HCRTR1). [Related pubchem assays (depositor defined):AID434989, AID435008, AID463079, AID485270, AID492963, AID492964, AID492965, AID493232, AID504717, AID504718]. It counts as functional.
Experiment [11] deals with CHO-K1. The experiment in a line: Counterscreen for antagonists of the orexin 1 receptor (OX1R; HCRTR1): Homogeneous time resolved fluorescence (HTRF)-based cell-based dose response assay to identify antagonists of the parental CHO-K1 cell line. [Related pubchem assays (depositor defined):AID434989, AID435008, AID463079, AID485270, AID492963, AID492964, AID492965, AID493232, AID504699, AID504701]. Format: functional. Conditions: Cricetulus griseus.

In experiment [12] the target is Peroxisome proliferator-activated receptor gamma/Nuclear receptor coactivator 3 (Homo sapiens, UniProt P37231). Format: functional.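 Also: agonist potency for raising coactivator recruitment to the receptor.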
Experiment [13] can be described thus: Counterscreen for antagonists of the orexin 1 receptor (OX1R; HCRTR1): Fluorescence-based cell-based high throughput dose response assay to identify antagonists of the parental CHO cell line. [Related pubchem assays (depositor defined):AID434989, AID435008, AID463079, AID485270, AID492963, AID492964, AID492965, AID493232, AID504699, AID504701]. It counts as functional.

In experiment [14] the target is T3, Probable nicotinate-nucleotide adenylyltransferase. It counts as functional, Staphylococcus aureus subsp. aureus N315. Conditions: read-out: IC50_Mean.
The target of experiment [15] is Paired box protein Pax-8 (Homo sapiens, UniProt Q06710). The experiment in a line: PAX8 transcriptional activity inhibition in RMG-I – RMG-I cells, luciferase, cherry-pick, dose response (AID 687027).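 Also: luciferase reporter driven by Pax8 target thyroperoxidase promoter measured by SteadyGlo luminescence.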 Format: functional, cell-based.
Experiment [16] deals with Heat shock protein HSP 90-alpha (Homo sapiens, UniProt P07900). Format: functional, organism-based.
Experiment [17] concerns the target T4, Beta Lactamase (Pseudomonas aeruginosa, UniProt Q932Y6). Kind of experiment: BLA reporter interference, concentration series – BLA reporter cells, FRET fluorescence, artefact control for NOD2-RIPK2 interaction inhibitor project, dose response (AID 651552). It counts as functional, cell-based.
Experiment [18] can be described thus: Fluorescence-based cell-based high throughput dose response assay for inhibitors of the interaction of nucleotide-binding oligomerization domain containing 2 (NOD2) and the receptor-interacting serine-threonine kinase 2 (RIPK2). It counts as functional. Particulars: Homo sapiens.
For experiment [19], the system named is Vero. The experiment in a line: cells. Particulars: Chlorocebus sabaeus. Format: functional.
Experiment [20] is described as follows: general cell-killing toxicity readout – plate reader, dry powder samples, cytotoxicity control for PAX8 inhibitor project, dose response (AID 743021). It counts as functional, cell-based.
The target in experiment [21] is Protein Wnt-3a (Mus musculus, UniProt P27467). Kind of experiment: antagonism of Wnt3a pathway luciferase reporter – Wnt-LIGHT cells, luminescence, selectivity assay for Gli-SUFU antagonist project, dose response (AID 651570).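 Also: Wnt-LIGHT reporter cells stimulated with conditioned medium from Wnt3a-producing cells.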 It counts as functional. Particulars: read-out: IC50_Mean.
Protein Wnt-3a, sequence (P27467 whole entry): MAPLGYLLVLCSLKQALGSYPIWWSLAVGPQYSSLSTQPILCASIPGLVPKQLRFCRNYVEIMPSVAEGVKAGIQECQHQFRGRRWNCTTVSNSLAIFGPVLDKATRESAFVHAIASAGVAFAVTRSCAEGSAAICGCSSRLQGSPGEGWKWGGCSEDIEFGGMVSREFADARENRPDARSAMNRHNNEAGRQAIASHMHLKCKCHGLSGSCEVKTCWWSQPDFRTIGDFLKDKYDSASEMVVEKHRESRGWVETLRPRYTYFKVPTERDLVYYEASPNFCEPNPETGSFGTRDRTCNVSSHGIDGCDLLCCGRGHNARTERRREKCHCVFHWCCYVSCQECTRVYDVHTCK
In experiment [22] the target is Neurotensin receptor type 1 (Homo sapiens, UniProt P30989). Format: functional.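 Also: Image-based confirmatory dose-response assay measuring agonist activity at NTR1; NTR1-expressing U2OS osteosarcoma cells imaged for beta-arrestin GFP spot formation; agonist potency where compounds increase beta-arrestin recruitment.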
Neurotensin receptor type 1, sequence (P30989 whole entry): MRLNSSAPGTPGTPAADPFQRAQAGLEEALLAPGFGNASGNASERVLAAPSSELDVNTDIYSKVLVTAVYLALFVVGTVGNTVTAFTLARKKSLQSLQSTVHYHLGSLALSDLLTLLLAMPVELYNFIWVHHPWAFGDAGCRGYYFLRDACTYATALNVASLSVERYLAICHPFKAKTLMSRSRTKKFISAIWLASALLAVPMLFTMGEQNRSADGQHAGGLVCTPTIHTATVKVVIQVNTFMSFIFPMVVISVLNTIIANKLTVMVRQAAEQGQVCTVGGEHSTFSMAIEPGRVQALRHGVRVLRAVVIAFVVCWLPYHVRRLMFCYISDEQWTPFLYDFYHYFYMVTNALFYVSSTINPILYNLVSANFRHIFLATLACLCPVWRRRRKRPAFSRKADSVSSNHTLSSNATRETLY
A short description of experiment [23]: reduction of Shn3 3'UTR-driven luciferase in osteoblasts – cell-based, Clone20 osteoblasts, firefly luciferase, cherry-picked, dose response (AID 624132).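 Also: firefly luciferase luminescence from reporter carrying the Shn3 3'UTR in osteoblasts.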 It counts as functional.
Experiment [24] is described as follows: non-specific 3'UTR reporter inhibition in Clone20-Shn3RL – cell-based, Renilla luciferase, cherry-picked, counter-screen for Shn3 inhibitor project, dose response (AID 624133). It counts as functional.
Experiment [25] can be described thus: loss of viability in HepG2 cells – cell-based, CellTiter-Glo, cherry-picked, cytotoxicity control for Shn3 inhibitor project, dose response (AID 624134). Format: functional.
Experiment [26] is described as follows: Luminescence Cell-Based Dose Retest to Confirm Inhibitors of Cancer Stem Cells. [Related pubchem assays (depositor defined):AID2717, AID2721]. Format: functional. Particulars: Homo sapiens.
The target in experiment [27] is Nuclear receptor subfamily 5 group A member 2 (Homo sapiens, UniProt O00482). Format: functional, cell-based.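 Also: HEK293T cells transfected with LRH-1 and a StAR promoter luciferase reporter; potency for inhibitors that lower LRH-1 driven reporter light.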
Nuclear receptor subfamily 5 group A member 2, sequence (O00482 whole entry): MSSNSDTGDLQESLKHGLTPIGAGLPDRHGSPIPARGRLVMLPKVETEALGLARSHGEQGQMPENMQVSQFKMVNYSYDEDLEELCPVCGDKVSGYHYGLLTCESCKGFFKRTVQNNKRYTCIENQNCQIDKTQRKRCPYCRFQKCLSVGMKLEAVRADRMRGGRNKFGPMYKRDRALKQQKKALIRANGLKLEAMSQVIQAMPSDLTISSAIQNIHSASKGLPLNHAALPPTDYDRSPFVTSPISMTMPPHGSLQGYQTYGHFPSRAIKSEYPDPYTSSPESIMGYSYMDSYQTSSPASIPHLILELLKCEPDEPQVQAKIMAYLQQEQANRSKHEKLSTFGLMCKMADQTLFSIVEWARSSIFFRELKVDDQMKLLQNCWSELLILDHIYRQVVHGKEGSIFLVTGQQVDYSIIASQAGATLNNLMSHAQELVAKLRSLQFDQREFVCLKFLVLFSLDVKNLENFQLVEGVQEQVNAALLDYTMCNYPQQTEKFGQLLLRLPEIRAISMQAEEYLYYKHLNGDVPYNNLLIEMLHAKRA
Experiment [28] addresses Steroidogenic factor 1 (Homo sapiens, UniProt Q13285). Kind of experiment: Counterscreen for inverse agonists of the liver receptor homolog-1 (LRH-1; NR5A2): Luminescence-based cell-based high throughput dose response assay to identify inverse agonists of the Steroidogenic Factor 1 Nuclear Receptor (SF1; NR5A1). Format: functional.
Experiment [29] can be described thus: nonselective StAR promoter luciferase inhibitors – cell-based, luminescence, luciferase reporter, counter-screen for LRH-1 inverse agonist project, dose response (AID 651969). Format: functional.
The target of experiment [30] is Beta-lactamase (Pseudomonas aeruginosa, UniProt Q79MP6).
Beta-lactamase (Pseudomonas aeruginosa, UniProt Q79MP6), sequence (Q79MP6 whole entry): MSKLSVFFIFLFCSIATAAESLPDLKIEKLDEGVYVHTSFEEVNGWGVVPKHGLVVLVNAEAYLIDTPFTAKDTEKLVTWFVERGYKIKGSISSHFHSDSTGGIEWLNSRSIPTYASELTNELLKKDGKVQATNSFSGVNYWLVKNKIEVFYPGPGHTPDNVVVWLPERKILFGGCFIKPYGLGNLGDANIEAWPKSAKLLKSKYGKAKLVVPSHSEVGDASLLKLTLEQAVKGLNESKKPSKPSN
Experiment [31] deals with T4, Beta Lactamase.
Experiment [32] addresses Beta-lactamase (Salmonella choleraesuis (strain SC-B67), UniProt Q5J463).
Experiment [33] concerns the target T5, Mitochondrial peptide methionine sulfoxide reductase (Bos taurus, UniProt P54149).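 Also: absorbance read-out, biochemical high-throughput dose-response screen for MsrA inhibitors, confirmatory; recombinant bovine MsrA coupled to E. coli TrxB with NADPH and selenocystamine; potency is for inhibitors of MsrA activity on DMSO substrate.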
T5 sequence (P54149 whole entry): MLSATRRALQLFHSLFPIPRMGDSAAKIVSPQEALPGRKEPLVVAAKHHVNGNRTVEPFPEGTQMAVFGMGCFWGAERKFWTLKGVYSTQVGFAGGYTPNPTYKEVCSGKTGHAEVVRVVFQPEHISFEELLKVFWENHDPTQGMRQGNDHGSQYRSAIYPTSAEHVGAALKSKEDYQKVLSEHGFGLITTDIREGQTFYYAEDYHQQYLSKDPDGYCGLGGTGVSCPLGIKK
It counts as functional.

For experiment [34], the target named is Aryl hydrocarbon receptor (Homo sapiens, UniProt P35869). Conditions: Potency.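 Also: confirmatory quantitative high-throughput screen measuring activation of the AhR signaling pathway.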
Aryl hydrocarbon receptor, sequence (P35869 whole entry): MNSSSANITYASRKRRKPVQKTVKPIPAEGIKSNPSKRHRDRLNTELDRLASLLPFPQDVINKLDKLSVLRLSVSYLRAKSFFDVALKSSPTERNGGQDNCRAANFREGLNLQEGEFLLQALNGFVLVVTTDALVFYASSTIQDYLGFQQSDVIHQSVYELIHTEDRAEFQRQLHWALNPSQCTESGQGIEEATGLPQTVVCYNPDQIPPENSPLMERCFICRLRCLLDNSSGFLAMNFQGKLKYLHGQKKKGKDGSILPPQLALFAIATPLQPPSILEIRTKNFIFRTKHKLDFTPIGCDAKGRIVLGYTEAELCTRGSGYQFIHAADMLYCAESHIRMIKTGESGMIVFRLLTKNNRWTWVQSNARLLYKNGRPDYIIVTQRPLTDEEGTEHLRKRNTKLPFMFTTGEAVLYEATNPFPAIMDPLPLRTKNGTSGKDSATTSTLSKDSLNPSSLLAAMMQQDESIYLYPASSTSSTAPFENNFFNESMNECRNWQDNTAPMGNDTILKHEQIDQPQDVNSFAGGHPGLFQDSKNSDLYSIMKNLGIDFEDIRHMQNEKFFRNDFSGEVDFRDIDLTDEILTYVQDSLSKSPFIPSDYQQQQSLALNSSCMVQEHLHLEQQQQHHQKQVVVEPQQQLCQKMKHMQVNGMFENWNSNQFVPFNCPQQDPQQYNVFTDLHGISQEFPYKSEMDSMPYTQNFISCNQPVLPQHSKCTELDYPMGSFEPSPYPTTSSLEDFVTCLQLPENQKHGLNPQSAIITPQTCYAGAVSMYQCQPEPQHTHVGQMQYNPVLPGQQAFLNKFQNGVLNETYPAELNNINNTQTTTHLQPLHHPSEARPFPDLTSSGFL
The target of experiment [35] is DNA repair and recombination protein RAD54-like (Homo sapiens, UniProt Q92698). The experiment in a line: RAD54 Holliday junction migration blockers – biochemical, fluorescence, cherry-picked samples, dose series, confirmation (AID 651657). It counts as functional.
The target of experiment [36] is DNA repair protein RAD52 homolog (Homo sapiens, UniProt P43351). Format: functional, biochemical.
Experiment [37] has as its target FAD-linked sulfhydryl oxidase ALR (Homo sapiens, UniProt P55789). Kind of experiment: ALR-catalysed DTT oxidation blockers – biochemical, H2O2 detection, luminescence, cherry-pick, dose response (AID 493248).

T4 sequence (Q932Y6 whole entry, the tested form may be a part): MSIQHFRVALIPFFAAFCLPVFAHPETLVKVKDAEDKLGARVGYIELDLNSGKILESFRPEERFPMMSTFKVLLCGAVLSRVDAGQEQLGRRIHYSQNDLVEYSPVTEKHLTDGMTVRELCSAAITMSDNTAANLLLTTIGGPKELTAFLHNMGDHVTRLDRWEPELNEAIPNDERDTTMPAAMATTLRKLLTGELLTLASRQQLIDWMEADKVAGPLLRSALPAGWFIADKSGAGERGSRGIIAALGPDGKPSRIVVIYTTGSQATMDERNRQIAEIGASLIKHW
Steroidogenic factor 1, sequence (Q13285 whole entry): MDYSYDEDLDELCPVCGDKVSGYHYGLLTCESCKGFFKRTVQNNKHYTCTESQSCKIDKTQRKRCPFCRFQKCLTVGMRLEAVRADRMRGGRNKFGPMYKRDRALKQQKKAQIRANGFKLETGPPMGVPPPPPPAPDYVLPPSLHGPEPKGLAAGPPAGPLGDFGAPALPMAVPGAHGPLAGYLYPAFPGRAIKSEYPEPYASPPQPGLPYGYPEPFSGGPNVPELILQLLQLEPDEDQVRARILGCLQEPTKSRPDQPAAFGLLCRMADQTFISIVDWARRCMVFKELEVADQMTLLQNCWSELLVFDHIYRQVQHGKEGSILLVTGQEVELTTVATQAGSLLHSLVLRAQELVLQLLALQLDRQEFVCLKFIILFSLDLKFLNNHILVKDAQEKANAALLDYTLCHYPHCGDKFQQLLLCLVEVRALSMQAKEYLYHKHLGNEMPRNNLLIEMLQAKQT
FAD-linked sulfhydryl oxidase ALR, sequence (P55789 whole entry): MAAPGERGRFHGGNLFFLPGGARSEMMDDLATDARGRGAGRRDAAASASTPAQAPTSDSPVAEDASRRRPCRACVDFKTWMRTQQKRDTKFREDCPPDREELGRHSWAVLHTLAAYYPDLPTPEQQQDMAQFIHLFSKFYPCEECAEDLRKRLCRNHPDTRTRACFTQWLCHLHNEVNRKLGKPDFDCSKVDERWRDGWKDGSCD
Beta-lactamase (Salmonella choleraesuis (strain SC-B67), UniProt Q5J463), sequence (Q5J463 whole entry): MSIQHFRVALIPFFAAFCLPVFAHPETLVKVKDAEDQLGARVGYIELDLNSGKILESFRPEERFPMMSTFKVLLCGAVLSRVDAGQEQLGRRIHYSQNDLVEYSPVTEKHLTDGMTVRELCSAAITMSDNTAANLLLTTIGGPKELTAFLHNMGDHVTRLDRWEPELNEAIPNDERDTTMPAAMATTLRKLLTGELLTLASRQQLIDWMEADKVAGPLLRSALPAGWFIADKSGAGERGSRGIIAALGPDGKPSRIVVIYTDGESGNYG

On to `CC(=O)OC[C@H]1O[C@@H](Sc2cccc3cccnc23)[C@H](OC(C)=O)[C@@H](OC(C)=O)[C@H]1OC(C)=O`, for which, in [1], the AC50 was 91.4 µM (active).

Consider `O=C(CSc1ccc(Br)c2cccc(Cl)c12)Nc1ccc(S(=O)(=O)Nc2nccs2)cc1`, for which the EC50 is listed as 61 µM (not active) in experiment [2], 28.6 µM (not active) in experiment [4] and 84.2 µM (not active) in [12]. The IC50 in experiment [3] is 1.43 µM (active); in [5], 31.5 µM (inactive); in experiment [6] it was > 69.5 µM (inactive); in experiment [7], > 50 µM (inactive); in [8] it was > 69.5 µM (inactive); in experiment [9], 6.53 µM (active). In addition, the IC50 in experiment [10] was 4.31 µM (active); in experiment [11] it was > 66.2 µM (inactive); in experiment [13], > 49.8 µM (inactive); in experiment [14], 25.8 µM (active).

Regarding `COC(=O)C1=C(C(=O)OC)C2OC1c1cc3ccccc3cc12`, the AC50 in [15] is 5.41 µM (active); in [16] it was 1.59 µM (active); in experiment [20] it was 23 µM (active). Moreover, the IC50 was 10.1 µM (inactive) in experiment [17] and 1.63 µM (active) in experiment [18]. For the same molecule, the CC50 in experiment [19] is > 25 µM (active).

For the molecule `CCCCNc1c(-c2ccc(OC)c(Sc3ccc(OC)cc3)c2)nc2ccccn12`, the IC50 in experiment [21] is 11.5 µM (active). Besides, in experiment [22], the EC50 is 32.2 µM (inactive). The AC50 was 0.821 µM (active) in experiment [23], 4.38 µM (active) in [24], 48.4 µM (active) in experiment [25] and 6 µM (active) in experiment [26].

For the molecule `Cc1cccc(NC(=O)COC(=O)CN2C(=O)c3ccccc3C2=O)c1C`, the results for the IC50 in [27], in experiment [28] and in experiment [29] were 46.7 µM (inactive), 5.33 µM (active) and 35.9 µM (inactive), respectively.

On to `O=C1C2C(c3ccccc3)C=CC(c3ccccc3)C2C(=O)N1c1ccncc1` (stereo not drawn), for which the IC50 in experiment [30] was 14.6 µM (inactive); in experiment [31] it was 62.4 µM (inactive); in experiment [32], > 59.6 µM (inactive).

Turning to `COC1C(OC(=O)/C=C/C=C/C=C/C=C/C(=O)O)CCC2(CO2)C1C1(C)OC1CC=C(C)C.c1ccc(Nc2ccccc2)cc1` (stereo not drawn), the IC50 in [33] is 94.5 µM (inactive).

Regarding `COC(=O)Nc1cccc(OC(=O)Nc2cccc(C)c2)c1`, in experiment [34], the AC50 is 39.8 µM (inconclusive).

On to `COc1ccc(Nc2c3ccccc3nc3ccccc23)cc1`, for which the AC50 was 7.04 µM (active) in experiment [35], 1.9 µM (active) in experiment [36] and 0.016 µM (active) in experiment [37].

Consider `CC(NC(C)c1ccccc1Cl)C(=O)Nc1cccc(S(=O)(=O)N2CCCCC2)c1` (stereo not drawn), for which the IC50 was 0.238 µM (active) in [3]; 18.9 µM (inactive) in experiment [5]; > 50 µM (inactive) in [7]; 3.25 µM (active) in [10]; > 66.2 µM (inactive) in experiment [11]; 48.8 µM (inactive) in experiment [13].
